Assay [1] relates to MMP-9 protein in MDA-MB-231 cells. Nature of the assay: Western blotting analysis (protein assay). Format: cell-based, human. Particulars: MDA-MB-231, 48 hours, various concentrations, vs DMSO control. How it is done:
MDA-MB-231 cells were treated with the polyamide of the present invention at various concentrations. 48 hours after the treatment, the cells were collected, and the total cell lysate was prepared into an extraction buffer containing a protease inhibition cocktail (Boehringer Ingelheim GmbH, Germany) containing 50 mM Tris-HCl, 150 mM NaCl, 10 mM EDTA and 1% Triton-X. Homogenates were centrifuged at 15,000×g at 4° C. for 10 minutes. The supernatants were collected, and protein concentrations were measured. The protein sample (10 μg) was electrophoresed on NuPAGE+™ 10% Bis-Tris gel (Invitrogen Life Technologies, Corp.) and transferred to a PVDF (polyvinylidene difluoride) membrane (Millipore, Bedford, Mass.). The PVDF membrane was incubated overnight with rabbit anti-MMP-9 polyclonal antibodies (Calbiochem (registered trademark) Biosciences, Inc. La Jolla, Calif.) (1:500) obtained from Calbiochem (registered trademark). The PVDF membrane was washed three times with a Tris buffer containing 0.2% Tween 20. The immunoconjugated proteins were identified through reaction with peroxidase-conjugated goat antibodies against rabbit IgG (MP Biomedicals, Inc.) and subsequently amplified by chemiluminescence detection (Amersham, Piscataway, N.J.).

Assay [2] concerns human breast cancer MDA-MB-231 cells. Nature of the assay: Wound-healing migration assay, MDA-MB-231. The note with it: 48 hours after the damage, various concentrations, vs DMSO. Format: cell-based. As for the experimental part: A human breast cancer MDA-MB-231 cell strain was used. The cells were cultured at 37° C. in a humid environment containing 5% CO^2 in an RPMI1640 medium (Sigma-Aldrich Corp., St. Louis, Mo., USA) supplemented with 100 μg/ml streptomycin, 100 units/ml penicillin and 10% fetal bovine serum (FBS) (Sigma-Aldrich Corp.). Human uterine cervix cancer HeLa cells were cultured in a Dulbecco's modified Eagle medium (DMEM, Invitrogen Life Technologies, Corp., Carlsbad, Calif.) containing 10% FBS and 2 mM L-glutamine.
To assay cellular migration in the process of wound healing, 3×10^5 cells were inoculated to each well of an 8-well chamber slide, and the cell layer was damaged using a plastic micropipette when the cells reached confluence. The medium and debris were removed by suction, and 100 μl of a fresh medium containing various polyamides was replaced therefor. 48 hours after the damage, the cells were fixed with Diff-Quik solution (SYSMEX INTERNATIONAL REAGENTS CO., LTD., Kobe, Japan), then stained, and photographed using a phase-contrast microscope.

The test system of assay [3] is MMP-9 mRNA in MDA-MB-231 cells. Nature of the assay: Real-time RT-PCR assay (mRNA expression assay). Format: cell-based, human. Particulars: 48 hours, MDA-MB-231, vs DMSO control, normalized to GAPDH. How it is done: MDA-MB-231 cells were treated with each polyamide of the present invention at various concentrations. 48 hours after the treatment, cell fractions were subjected to RNA separation using a TRIzol reagent (Invitrogen Life Technologies, Corp.) according to the manufacturer's manual. RNA was treated with DNase prior to cDNA synthesis. Complementary DNA strands were synthesized by reverse transcription using SuperScript™ First-Strand kit (Invitrogen Life Technologies, Corp.). In real-time RT-PCR (Thermal cycler Dice Real Time system TP800, Takara Bio Inc., Japan), SYBR Premix Ex Taq Kit (Takara Bio Inc.) was used. Primers for HMMP9AP1 (forward, 5′-[…]-3′, SEQ ID NO: 12; reverse 5′-[…]-3′, SEQ ID NO: 13; 236 bp) and internal standard human endogenous glyceraldehyde-3-phosphate dehydrogenase (GADPH; forward, 5′-[…]-3′, SEQ ID NO: 14; reverse, 5′-TGGTGAAGACGCCAGTGGA-3′, SEQ ID NO: 15; 138 bp) were used. Moreover, primers for HMMP9NFKκβ (forward, 5′-[…]-3′, SEQ ID NO: 16; reverse, 5′-[…]-3′, SEQ ID NO: 17; 236 bp) and internal standard human endogenous glyceraldehyde-3-phosphate dehydrogenase (GADPH; forward, 5′-[…]-3′, SEQ ID NO: 18; reverse, 5′-TGGTGAAGACGCCAGTGGA-3′, SEQ ID NO: 19; 138 bp) were used. 25 μl of two-step RT-PCR mixture consists of 12.5 μl of SYBR Premix Ex TAq, 0.5 μl each of forward and reverse primers, 10.5 μl of RNase-free water and 1 μl of template cDNA. The real-time cycle conditions were performed by a reaction system involving 95° C. for 10 seconds, 95° C. for 5 seconds and 60° C. for 30 seconds. The quantification of the MMP-9 gene was normalized by comparison with GAPDH expression.
A general note: In qPCR the cycle at which signal appears reflects the starting amount.

Assay [4] has as its system liver metastasis of human colon cancer cell strain HT29 transplanted in the spleen. Description: Nude mouse models with liver metastasis from human colon cancer. Format: in vivo, nude mice. Particulars: HT29 cells cultured 1 hour with 10 μM polyamide, splenic transplantation, 6 weeks. As for the experimental part: 5-week-old male nude mice (BALB/c Nude Mice CBy.Cg-Foxn1nu/J) (Jackson Laboratory) were purchased, maintained in a pathogen-free environment until 6 week olds, and used in the experiment. A human colon cancer cell strain HT29 was monolayer-cultured in a 100-cm^2 cell culture flask and treated with 0.05% trypsin and 0.02% EDTA solutions before reaching confluence. The cells were collected, centrifuged at 800 rpm for 3 minutes, then washed with PBS containing neither Ca^2+ nor Mg^2+, and cultured for 1 hour in a culture solution adjusted to a polyamide concentration of 10 μM or a polyamide-free culture solution. Then, a cell suspension having a concentration of 3×10^6 cells in 100 μl again was prepared using PBS. The thus-prepared 3 groups of the cells containing HMMP9NFκβ polyamide, containing mismatch polyamide and in polyamide-free PBS were separately administered to the nude mice (6 individuals/group). Longitudinal incision was made in the skin on the left side of the abdominal regions of the nude mice under anesthesia. After peritoneotomy to the spleen, 100 μl of the colon cancer cell suspension was transplanted to the splenic subcapsular region using a 29-G injection needle (FIG. 29A). The reliable splenic subcapsular transfer of the cell grafts was confirmed based on change in the color tone of the cell-transplanted site through the splenic capsule and the absence of bleeding or leakage of the suspension. After the transplantation, the mice were raised for 6 weeks and subjected to autopsy. The livers and the spleens were extracted, fixed in a 10% buffered formalin solution, then histologically stained with hematoxylin eosin, and subjected to microscopic observation. […] The liver metastatic foci are circled in the preparations.

The structures appear in SMILES notation.

Turning to `CC(=O)Nc1cc(C(=O)Nc2cc(C(=O)NCCC(=O)Nc3cc(C(=O)Nc4cc(C(=O)NCCCC(=O)Nc5cn(C)c(C(=O)Nc6cn(C)c(C(=O)NCCC(=O)Nc7cc(C(=O)Nc8cc(C(=O)NCCC(=O)NCCCN(C)C)n(C)c8)n(C)c7)n6)n5)n(C)c4)n(C)c3)n(C)c2)n(C)c1` [HMMP9NFκβ], the “expression of MMP-9 protein” value in assay [1] is recorded as “decreased in an HMMP9NFκβ concentration-dependent manner”. In assay [2], the “migration of MDA-MB-231 cells” value is on record as “inhibit the migration of MDA-MB-231 cells in a concentration-dependent manner”. In addition, the “decrease of the expression level of MMP-9 mRNA” value in assay [3] (0.3 μM) stood at 86%; in assay [3] (1 μM) it was 68%; in assay [3] (3 μM), 40%; in assay [3] (10 μM), 28%. Moreover, the “area of liver metastatic foci” value in assay [4] is “small”. In assay [4], the “number of liver metastatic foci” value is “distinctly small”. The “size of liver metastatic foci” value in assay [4] is recorded as “distinctly small”.

Take `CC(=O)Nc1cn(C)c(C(=O)Nc2cc(C(=O)NCCC(=O)Nc3cn(C)c(C(=O)Nc4cc(C(=O)Nc5cc(C(=O)NCCCC(=O)Nc6cn(C)c(C(=O)Nc7cn(C)c(C(=O)Nc8cc(C(=O)NCCC(=O)Nc9cn(C)c(C(=O)Nc%10cc(C(=O)NCCC(=O)NCCCN(C)C)n(C)c%10)n9)n(C)c8)n7)n6)n(C)c5)n(C)c4)n3)n(C)c2)n1` [HMMP9AP1]: the “expression of MMP-9 protein” value in assay [1] was “remarkably inhibited”. Moreover, the “migration of MDA-MB-231 cells” value in assay [2] is reported as “inhibit the migration of MDA-MB-231 cells in a concentration-dependent manner”. Moreover, the “decrease of the expression level of MMP-9 mRNA” value in assay [3] (0.3 μM) is given as 84%; in assay [3] (1 μM), 54%; in assay [3] (3 μM), 38%; in assay [3] (10 μM), 26%.

(Values after patent US20110046070A1, “GENE EXPRESSION INHIBITOR SELECTIVE FOR MATRIX METALLOPROTEINASE-9 GENE” (priority 2008, published 2011).)
